In patent US5789414A, “Pharmaceutical compositions comprising tetrahydropyrimidine derivates” (Yeda Research and Development Co. Ltd., priority 1992, dated 1998):
Numbered stars: 1 amine (or outer) side, 2 acyl side, 3 side chain; on linkers, the order of the positions; unused ones are H or OH. Bridge positions count the residues as written; N and C are the ends. Square brackets hold non-standard residues; d marks the D form. Peptide text beside a SMILES is read from it. I, II: the chains in the order shown. Actinocin(9to1) = Cc1c2oc3c(C)ccc(C(=O)[*:1])c3nc-2c(C(=O)[*:2])c(N)c1=O; NMeV = CN[C@H](C(=O)O)C(C)C; Sar = CNCC(=O)O

Experiments:
[1] = test system: RNA polymerase II from HeLa cells; test: In vitro transcription of dCMP-tailed template, RNA polymerase II; type: biochemical, mammalian; conditions: for effect of the THP by itself on the transcription reactions: lanes 2, 6, 10
Experimental: FIG. 5 is a radiogram showing the inhibition of RNA polymerase II transcription by Act D and its resumption due to the addition of THP(A) and THP(B). Relative intensities of the bands were determined as in Table 6. The concentration of the DNA was 71.4 μM.
(§1) The inhibition of RNA polymerase transcription caused by Act D binding to DNA was studied using the system described in Kadesch and Chamberlin, 1982, in which purified RNA polymerases from mammalian cells, such as RNA polymerases I, II and II from HeLa cells, are able to transcribe defined dCMP-tailed DNA templates efficiently and specifically. The dCMP-tailed DNA system allows quantitative studies of transcription reactions by the polymerase protein itself in the absence of other protein factors, and is thus an appropriate system to analyze the direct effect of DNA-binding drugs on the transcription process, and the protective effect of THP(A) and THP(B) on transcription in the presence of Act D.
(§2) DNA-dependent RNA polymerases I, II and III from HeLa cells (pol I, pol II and pol III, respectively) were purified by a method which is a modification of the procedure described by Hodo and Blatti, 1977.
(§3) The templates DNA were linearized by restriction enzyme Pst I generating a 3' protruding end, and tailed at both ends with dCTP by using terminal transferase (Boehringer Mannheim). Following ethanol precipitation, the dCMP-tailed DNAs were digested with a second restriction enzyme, and the selected tailed fragment was purified from agarose gel as described by Kadesch and Chamberlin, 1982.
Transcription reaction mixtures were incubated in 15 μl of transcription buffer containing 70 mM Tris-HCl (pH 7.9), 0.1M NH4 Cl, 6 mM MgCl2, 5 mM spermidine, 10% glycerol, 0.15 mM dithriothreitol, 0.6 μg of dCMP-tailed template, and 0.5 μl of HeLa RNA polymerase (3u) at 30° C. for 10 min. Pulse buffer (3.5 μl) containing 4.3 mM of ATP, GTP and CTP, and 170 μM UTP, 20 μCi of [α-^32 P]UTP was added to the transcription reaction mixture for 20 seconds incubation. Transcription elongation then took place by adding 1.5 μl of chase buffer containing 7 mM UTP in the presence or absence of 0.06 μg Act D. Transcription elongation was carried out for 10 min and was then stopped by addition of proteinase K buffer (0.6% SDS; 25 mM Tris pH 7.9; 25 mM EDTA final concentration) 200 μg/ml proteinase K, and 30 μg of tRNA, and incubated for 25 min at 65° C. The sample was ethanol precipitated, pellet was resuspended in loading buffer (90% formamide; 0.5×Tris borate buffer) and subjected to 6% polyacrylamide--urea gel electrophoresis. The autoradiogram of the gel was analyzed by molecular dynamics computing densitometer to determine the relative intensities of the bands. (Nucleoside triphosphates and tRNA were purchased from Sigma, proteinase K from Boehringer Mannheim, and [α-^32 P]CTP (400 Ci/mmol) from Amersham International, United Kingdom).
The sensitivity of the three RNA polymerases from HeLa cells to various concentrations of Act D was determined, using the purified polymerases and a dCMP-tailed template of 225 bp for pol I and of 420 bp for pol II and pol III. These templates are expected to give runoff transcripts of 225 and 420 nucleotides, respectively, since RNA polymerase initiates transcription at discrete sites at the single-stranded tail double stranded duplex junction. In all experiments a pulse-chase protocol was used.
It was figured that the concentration of the THP(A)+THP(B) required to prevent binding of Act D to DNA would be higher than that of Act D, since they are expected to protect the DNA in general and not necessarily at d(GpC) base pair (bp), whereas the concentration of Act D is related to the d(GpC) content of the DNA. […] Yet when THP(A) and THP(B) were added together in a ratio of 1:1, their effect was dramatic. At a concentration of 200 μM there was a recovery of 75% of transcription in the presence of 2.5 μM Act D, which by itself would have inhibited 97% of the reaction. […]

[2] = test system: RNA polymerase I from HeLa cells; test: In vitro transcription of dCMP-tailed template, RNA polymerase I; type: biochemical, mammalian
Description: as §1, with “D. […]” for “D.”
(§4) Transcription reaction mixtures were incubated in 15 μl of transcription buffer containing 70 mM Tris-HCl (pH 7.9), 0.1M NH4 Cl, 6 mM MgCl2, 5 mM spermidine, 10% glycerol, 0.15 mM dithriothreitol, 0.6 μg of dCMP-tailed template, and 0.5 μl of HeLa RNA polymerase (3u) at 30° C. for 10 min. […] The autoradiogram of the gel was analyzed by molecular dynamics computing densitometer to determine the relative intensities of the bands. […]
(§5) The sensitivity of the three RNA polymerases from HeLa cells to various concentrations of Act D was determined, using the purified polymerases and a dCMP-tailed template of 225 bp for pol I and of 420 bp for pol II and pol III. […]

[3] = test system: HeLa whole cell extract (WCE); test: In vitro transcription using HeLa whole cell extract (WCE); type: biochemical
Experimental: The DNA was preincubated with THPs (A+B) at increasing concentrations for 20 min at 30° C., actinomycin D was then added at a concentration of 0.4 μg/ml. Following 20 min of incubation, WCE (10 μl) was added for incubation of 20 min at 30° C. Radioactive nucleotide mix was then added for a pulse of 5 min followed by addition of chase mix containing 10 mM CTP. Transcription proceeded for 30 min at 30° C. and was then stopped. […] Lane M--molecular weight markers. Lane C--control reaction without […] or THPs. Lanes of reaction with 0.4 μg/ml actinomycin D are marked (+), lanes of increasing concentrations of THPs (0, 5, 10, 20, 50, 100, 200, 500 μg/ml) are also marked above the lanes.
A 20-μl reaction contained 10 μl WCE, 1 μg DNA, 4 mM creatine phosphate, 500 μM ATP, GTP, UTP, 50 μM CTP, 20 μCi of [α-^32 P]CTP, and transcription was performed at 30° C. All reactions were preincubated 20 min before the addition of the nucleotide mixture; 3 min after the addition of radioactive nucleotides, (pulse), chase mix containing 10 mM unlabelled CTP was added and transcription proceeded for additional 20 min.

d(ATGCAT) = test: 1H NMR titration: equilibrium binding of Act D to d(ATGCAT) in presence and absence of THPs; conditions: no THPs
Description: Expanded views of (a) and (a') are shown in spectra (A) and (A'), respectively of FIG. 4(b). The spectra were obtained at pH 7 (as in FIG. 3).
(c) Binding of Act D to d(ATGCAT). The binding of Act D to free oligonucleotide and to the oligonucleotide-THPs complex have been investigated by the ^1 H NMR titration technique.
The equilibrium binding properties of Act D-d(ATGCAT) in the presence and absence of the THPs (Table 4) were derived from the proton peak area ratios of the free hexamer to the bound Act D-hexamer.

[4] = test system: RNA polymerases I, II and III from HeLa cells; test: In vitro transcription of dCMP-tailed template, summary for the three polymerases; type: biochemical, mammalian; conditions: pol I
Description: as §1, §4, §5

[5] = test system: RNA polymerase III from HeLa cells; test: In vitro transcription of dCMP-tailed template, RNA polymerase III; type: biochemical, mammalian
Description: as §1, §2, §3, §4, §5

E. coli = E. coli growth under high salt or in the presence of adriamycin; type: cell-based; conditions: conditions which otherwise prevent E. coli growth
[6] = Toxicity on administration to mice; type: in vivo; conditions: doses of 1, 10 and 100 mg/100 g body weight
Description: (§6) THP(A) and THP(B) are not toxic to mammals.

[7] = test system: gram positive and gram negative bacteria; test: Antibiotic activity test on bacterial cultures; type: cell-based; conditions: several cultures of gram positive and gram negative bacteria
Description: as §6

enzymes = conditions: e.g. against heating, freezing and drying; cited from earlier work
HL60 cells = test: [3H] thymidine incorporation (DNA synthesis) in HL60 cells; type: cell-based; conditions: Homo sapiens, HL-60, read-out: inhibition of [3H] thymidine incorporation
Experimental: FIG. 6 illustrates reversal of adriamycin inhibition of DNA synthesis due to THPs. It depicts a schematic presentation of percent [^3 H] thymidine incorporated versus adriamycin concentration according to the table below the scheme. Empty squares--[^3 H] thymidine incorporation versus adriamycin concentration. Filled squares--[^3 H] thymidine incorporation versus adriamycin concentration in the presence of THPs (100 μg/ml).
HL60 cells were grown in RPMI medium (Gibco) containing 10% fetal calf serum (Biological Laboratories--Bet Haemek) in microwell plates (Nunc). Cells were suspended in medium at a concentration of 2×10^5 cells per ml and dispersed into the wells of the plates in 100 μl aliquots. Following 20 hrs of incubation at 37° C., the cells were treated with THPs (100 μg/ml) and adriamycin at increasing concentrations as indicated in FIG. 6. After 24 hrs [^3 H] thymidine was added (1 μCi/well, […]) for a duration of 3 hrs. Thymidine incorporation was stopped by addition of 25 μl trichloroacetic acid (TCA) at 20%, and the plates were placed at 4° C. overnight. TCA precipitates were washed with 10% TCA (100 μl), solubilized in 100 μl 1N NaOH and transferred to vials for counting in the presence of 3 ml scintillation solution containing toluene:Lumax (Lumac, The Netherlands) (3:2) mix. Assays were performed in triplicates.

[8] = THP 10 μg/ml (66 μM, 60 μM printed for THP(B)), Act D 3 μg/ml [2.5 μM]
[9] = THP 30 μg/ml (200 μM), Act D 3 μg/ml [2.5 μM]
[10] = THP 60 μg/ml (400 μM), Act D 3 μg/ml [2.5 μM]
[11] = THP 60 μg/ml (400 μM), without Act D

Cc1c2oc3c(C)ccc(C(=O)N[C@@H]4C(=O)N[C@H](C(C)C)C(=O)N5CCC[C@H]5C(=O)N(C)CC(=O)N(C)[C@@H](C(C)C)C(=O)O[C@@H]4C)c3nc-2c(C(=O)N[C@@H]2C(=O)N[C@H](C(C)C)C(=O)N3CCC[C@H]3C(=O)N(C)CC(=O)N(C)[C@@H](C(C)C)C(=O)O[C@@H]2C)c(N)c1=O [Act D, Actinomycin D] (I: T[dV]P[Sar][NMeV] / II: T[dV]P[Sar][NMeV]; ester I:1-I:C, II:1-II:C; linker I:N-II:N via Actinocin(9to1))
inhibition of transcription ([1]; Act D 2.5 μM (3 μg/ml) by itself): 97%
% transcription ([1]; Act D 3 μg/ml [2.5 μM], THP 0): 0.2%
Percentage of residual transcription ([1]; Actinomycin-D 1 μg/ml): 22%
Percentage of residual transcription ([1]; Actinomycin-D 4 μg/ml): 3%
Percentage of residual transcription ([1]; Actinomycin-D 5 μg/ml): 3%
Percentage of residual transcription ([2]; Actinomycin-D 1 μg/ml): 16%
Percentage of residual transcription ([2]; Actinomycin-D 5 μg/ml): 3%
inhibition of the transcription reaction ([3]; Act D alone at 0.4 μg/ml): 80%
residual transcription ([3]; actinomycin D alone, 0.4 μg/ml): 20%
d(ATGCAT) (free/bound) (d(ATGCAT); molar ratio Act D/d(ATGCAT) 0.16): 4.9
d(ATGCAT) (free/bound) (d(ATGCAT); molar ratio Act D/d(ATGCAT) 0.32): 1.7
d(ATGCAT) (free/bound) (d(ATGCAT); molar ratio Act D/d(ATGCAT) 0.48): 0.8
d(ATGCAT) (free/bound) (d(ATGCAT); molar ratio Act D/d(ATGCAT) 0.64): 0.4
residual transcription ([4]; 1 μg/ml Act D added with the chase): 10-20%
residual transcription ([4]; Act D 3-5 μg/ml): 0.1-3%
Percentage of residual transcription ([5]; Actinomycin-D 1 μg/ml): 13%
Percentage of residual transcription ([5]; Actinomycin-D 3 μg/ml): 3%
Percentage of residual transcription ([5]; Actinomycin-D 5 μg/ml): 0.1%

CC1=NCC(O)C(C(=O)O)N1 (stereo not drawn) [THP(A), 2-methyl-4-carboxy-5-hydroxy-3,4,5,6-tetrahydropyrimidine]
% transcription [1, 8]: 0.2%
% transcription [1, 9]: 0.5%
% transcription [1, 10]: 1.5%
% transcription [1, 11]: 100%
effect of the THP by itself on the transcription reactions ([1]; without Act D): did not inhibit the transcription reactions
growth of E. coli in the presence of adriamycin (E. coli): enable efficient growth of E. coli
growth of E. coli under high salt concentrations (E. coli): enable efficient growth of E. coli
toxic effects [6]: no toxic effects
antibiotic activity [7]: do not have antibiotic activity

CC1=NCC[C@@H](C(=O)O)N1 [THP(B), 2-methyl-4-carboxy-3,4,5,6-tetrahydropyrimidine]
% transcription [1, 8]: 1.0%
% transcription [1, 9]: 2.7%
% transcription [1, 10]: 5.1%
% transcription [1, 11]: 100%
effect of the THP by itself on the transcription reactions ([1]; without Act D): did not inhibit the transcription reactions
antibiotic activity [7]: do not have antibiotic activity
protective effect on enzymes (enzymes): protective effect on enzymes

COc1cccc2c1C(=O)c1c(O)c3c(c(O)c1C2=O)C[C@@](O)(C(=O)CO)C[C@@H]3O[C@H]1C[C@H](N)[C@H](O)[C@H](C)O1 [adriamycin]
inhibition at 0.01 µg/mL (HL60 cells): 30%
inhibition at 0.02 µg/mL (HL60 cells): 40%
